Patent US11413278B2, “Compounds and methods for promoting stress resistance” (priority 2015, dated 2022)
Entries after “also recorded” stand apart in the source; their conditions may differ. Like-named read-outs stand apart in the source and are kept apart here.

Columns and labels:
WI-38 cells [1] = assay: Propidium iodide (PI) cell-death imaging upon H2O2 stress; type: cell-based, human; conditions: for Assay 7: H2O2-resistant, at 10 uM, validated by propidium iodide (PI) cell-death imaging: w/H2O2, 3 hrs/4 hrs/5 hrs, YES/NO; for cytotoxicity at 10 µM: Homo sapiens, WI-38
[2] = test system: human dermal fibroblast (HDF) primary cells; assay: H2O2-resistance in primary human dermal fibroblasts; type: cell-based; conditions: for fold induction at 10 µM: Homo sapiens; for Assay 6: H2O2-resistant, at 10 uM, human dermal fibroblast (HDF) primary cells: YES/NO
FOXO3 = assay: qPCR analysis of FOXO3-regulated genes; type: cell-based, human; conditions: for fold induction at 10 µM: Homo sapiens; for K = Sestrin induction: score
Procedure, shortened: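 FOXO3 target-gene expression quantified by qPCR normalised to B2M, PPIA and GAPDH, in WI-38 cells after 24 h exposure to 10 μM compound. Some runs used cells first transfected 36 h with 10 nM FOXO3 or NRF2 siRNA and replated ~24 h before dosing.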

C. elegans = type: in vivo, Caenorhabditis elegans; conditions: in vivo
Procedure, shortened: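 Survival under oxidative stress: 500 μM H2O2 (final) was added to day-4 adults kept in liquid with compounds, FUdR present, 4 wells per molecule and 0.2% DMSO controls, with daily scoring of viability.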

[3] = Summary score for characterization of 38 core set hits; conditions: for D = Triple resistant: 2-point score, multiplex resistance (cadmium, MMS, H2O2); for S = Sum of Negative scores: human; for C = H2O2- & Cd-resistant: score, resistance to both H2O2 and cadmium
Procedure, shortened: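 Hits from a small-molecule screen for H2O2 resistance were scored across characterization assays. Multiplex resistance, FOXO3 and/or NRF2 activation and mTOR down-regulation each earned 2 points. C. elegans lifespan, tested in 4 to 6 independent trials, scored 0–2, and DNA-damaging or cytotoxic effects in cultured human cells cost one point.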

WI-38 cells [4] = conditions: for No H2O2 stress treatment, at 10 uM (fold change): normalized ATP measurement; for Assay 1: H2O2-resistant: YES/NO, if NO, possibly due to repeated freezing/thawing of stocks
[5] = H2O2 3 hrs, 10 uM, n = 6, negative control 5.44% ± 0.79%, read-out: Percentage of propidium iodide-positive dead cells (under H2O2 stress treatment), 3 hrs
[6] = pre-treatment at 10 uM, 3.5 hours of H2O2, DMSO control 27.4% ± 6.5%, */**/*** = reduced by one/two/three standard deviations, read-out: Percentage of propidium iodide-positive dead cells (under H2O2 stress treatment), at 10 uM
[7] = Experiment 1, HDF cells, read-out: Experiment 1, HDF cells (under H2O2 stress treatment), at 10 uM (fold change)
[8] = Experiment 2, HDF cells, read-out: Experiment 2, HDF cells (under H2O2 stress treatment), at 10 uM (fold change)
[9] = 24 h, Assay 10(m), at 10 uM, qPCR, read-out: Induction of FOXO3-regulated genes: CAT normalized fold-change
[10] = 24 h, Assay 10(m), at 10 uM, qPCR, read-out: Induction of FOXO3-regulated genes: DDB1 normalized fold-change
[11] = 24 h, Assay 10(m), at 10 uM, qPCR, read-out: Induction of FOXO3-regulated genes: TXNIP normalized fold-change
[12] = 10 μM, 24 hrs, WI-38 cells, qPCR, normalized to B2M, n = 4, read-out: CAT expression, normalized fold change (FOXO3-regulated gene)
[13] = 10 μM, 24 hrs, WI-38 cells, qPCR, normalized to B2M, n = 4, read-out: TXNIP expression, normalized fold change (FOXO3-regulated gene)
[14] = WI-38 cells, 10 μM, 24 hrs, n=4, qPCR normalized by B2M, read-out: DDB1 Normalized fold change
[15] = WI-38 cells, 10 μM, 24 hrs, n=4, qPCR normalized by B2M, read-out: GADD45A Normalized fold change
[16] = WI-38 cells, 10 μM, 24 hrs, n=4, qPCR normalized by B2M, read-out: SESN1 Normalized fold change
[17] = fold change, qPCR, WI-38 cells, 10 μM, 24 hrs, read-out: Summary of effects on FOXO3-regulated genes: CAT
[18] = fold change, qPCR, WI-38 cells, 10 μM, 24 hrs, read-out: Summary of effects on FOXO3-regulated genes: TXNIP
[19] = qPCR, WI-38 cells, 10 μM, n=4, 24 hrs, normalized by B2M, read-out: CAT Normalized fold change
[20] = qPCR, WI-38 cells, 10 μM, n=4, 24 hrs, normalized by B2M, read-out: SOD2 Normalized fold change
[21] = qPCR, WI-38 cells, 10 μM, n=4, 24 hrs, normalized by B2M, read-out: TXNIP Normalized fold change
[22] = WI-38 cells, 10 μM, (*) = compromised ability to protect cells from H2O2, could be due to stability issue
[23] = asterisks indicate the loss of the ability to protect cells from H2O2 over time
[24] = derived from dose response curves, 0.6-20 uM, H2O2-resistance of WI-38 cells
[25] = read-out: Est. ED50, dose response 0.6-20 μM, H2O2-resistance

O=C(NCc1cccnc1)/C(=C/c1ccc(-c2ccc(Cl)cc2)o1)S(=O)(=O)c1ccccc1 [Gr-7C]
Assay 7: H2O2-resistant, at 10 uM, validated by propidium iodide (PI) cell-death imaging (WI-38 cells [1]; 10 uM): YES
cytotoxicity at 10 µM (WI-38 cells [1]; [5]): 0.82%
cytotoxicity at 10 µM (WI-38 cells [1]; H2O2 4 hrs, 10 uM, n = 6, negative control 16.81% ± 1.42%, read-out: Percentage of propidium iodide-positive dead cells (under H2O2 stress treatment), 4 hrs): 2.36%
cytotoxicity at 10 µM (WI-38 cells [1]; H2O2 5 hrs, 10 uM, n = 6, negative control 22.50% ± 1.53%, read-out: Percentage of propidium iodide-positive dead cells (under H2O2 stress treatment), 5 hrs): 3.73%
cytotoxicity at 10 µM (WI-38 cells [1]; [6]): 12.5%
fold induction at 10 µM [2, 7]: 0.074
fold induction at 10 µM [2, 8]: 8.33
Assay 6: H2O2-resistant, at 10 uM, human dermal fibroblast (HDF) primary cells [2]: YES
SOD2 expression, normalized fold change (FOXO3-regulated gene) (FOXO3; 10 μM, 24 hrs, WI-38 cells, qPCR, normalized to B2M, n = 4): SOD2 2.67, fold
E = Potential FOXO3 Activation (FOXO3; 2-point score): 2
Potential FOXO3 Activation (>=2 target genes induced, by >=1.5-fold) (FOXO3; Assay 11(n)): YES
fold induction at 10 µM (FOXO3; [9]): 1.43
fold induction at 10 µM (FOXO3; [10]): 1.36
fold induction at 10 µM (FOXO3; 24 h, Assay 10(m), at 10 uM, qPCR, read-out: Induction of FOXO3-regulated genes: GADD45A normalized fold-change): 10.9
fold induction at 10 µM (FOXO3; 24 h, Assay 10(m), at 10 uM, qPCR, read-out: Induction of FOXO3-regulated genes: SOD2 normalized fold-change): 2.67
fold induction at 10 µM (FOXO3; [11]): 0.07
fold induction at 10 µM (FOXO3; [12]): 1.43
fold induction at 10 µM (FOXO3; 10 μM, 24 hrs, WI-38 cells, qPCR, normalized to B2M, n = 4, read-out: DDB1 expression, normalized fold change (FOXO3-regulated gene)): 1.36
fold induction at 10 µM (FOXO3; 10 μM, 24 hrs, WI-38 cells, qPCR, normalized to B2M, n = 4, read-out: GADD45A expression, normalized fold change (FOXO3-regulated gene)): 10.9
fold induction at 10 µM (FOXO3; [13]): 0.07
fold induction at 10 µM (FOXO3; [14]): 1.36
fold induction at 10 µM (FOXO3; [15]): 10.9
fold induction at 10 µM (FOXO3; [16]): 1.28
fold induction at 10 µM (FOXO3; [17]): 1.43
fold induction at 10 µM (FOXO3; fold change, qPCR, WI-38 cells, 10 μM, 24 hrs, read-out: Summary of effects on FOXO3-regulated genes: DDB1): 1.36
fold induction at 10 µM (FOXO3; fold change, qPCR, WI-38 cells, 10 μM, 24 hrs, read-out: Summary of effects on FOXO3-regulated genes: GADD45A): 10.9
fold induction at 10 µM (FOXO3; [18]): 0.07
fold induction at 10 µM (FOXO3; [19]): 1.43
fold induction at 10 µM (FOXO3; [20]): 2.68
fold induction at 10 µM (FOXO3; [21]): 0.068
Summary of effects on FOXO3-regulated genes: SOD2 (FOXO3; fold change, qPCR, WI-38 cells, 10 μM, 24 hrs): SOD2 2.67,
K = Sestrin induction (FOXO3): 0
E = Potential FOXO3 Activation (FOXO3; summary score): 2
L = H2O2-resistance in worms (C. elegans): 0
N = H2O2-resistance in woms (C. elegans): 0
D = Triple resistant [3]: 0
S = Sum of Negative scores [3]: 1
C = H2O2- & Cd-resistant [3]: 0
H2O2-resistant (WI-38 cells [4]; [22]): YES
No H2O2 stress treatment, at 10 uM (fold change) (WI-38 cells [4]; WI-38 cells): 0.87 fold change
Assay 1: H2O2-resistant (WI-38 cells [4]): YES
H2O2-resistant (WI-38 cells [4]; [23]): YES
EC50 (WI-38 cells [4]; [24]): 14.2 µM
EC50 (WI-38 cells [4]; [25]): 2.59 µM

O=C(Nc1cc(C(F)(F)F)ccc1Cl)c1ccc([N+](=O)[O-])o1 [Gr-1B]
Assay 7: H2O2-resistant, at 10 uM, validated by propidium iodide (PI) cell-death imaging (WI-38 cells [1]; 10 uM): YES
cytotoxicity at 10 µM (WI-38 cells [1]; [5]): 2.69%
cytotoxicity at 10 µM (WI-38 cells [1]; [6]): 38.1%
fold induction at 10 µM [2, 7]: 0.51
fold induction at 10 µM [2, 8]: 53.7
Assay 6: H2O2-resistant, at 10 uM, human dermal fibroblast (HDF) primary cells [2]: YES
Induction of at least two of five FOXO3-regulated genes (SOD2, GADD45A, CAT, DDB1, TXNIP) (FOXO3; 10 μM, 24 hrs, WI-38): significant induction; also recorded: significant, induction
E = Potential FOXO3 Activation (FOXO3; 2-point score): 0
fold induction at 10 µM (FOXO3; [9]): 1.4
fold induction at 10 µM (FOXO3; [11]): 1.52
fold induction at 10 µM (FOXO3; [12]): 1.4
fold induction at 10 µM (FOXO3; 10 μM, 24 hrs, WI-38 cells, qPCR, normalized to B2M, n = 4, read-out: SESN1 expression, normalized fold change (FOXO3-regulated gene)): 1.3
fold induction at 10 µM (FOXO3; [13]): 1.94
fold induction at 10 µM (FOXO3; [14]): 1.18
fold induction at 10 µM (FOXO3; [15]): 0.947
fold induction at 10 µM (FOXO3; [16]): 1.3
fold induction at 10 µM (FOXO3; [17]): 1.4
fold induction at 10 µM (FOXO3; fold change, qPCR, WI-38 cells, 10 μM, 24 hrs, read-out: Summary of effects on FOXO3-regulated genes: SESN1): 1.3
fold induction at 10 µM (FOXO3; [18]): 1.94
fold induction at 10 µM (FOXO3; [19]): 1.4
fold induction at 10 µM (FOXO3; [20]): 1.21
fold induction at 10 µM (FOXO3; [21]): 1.94
K = Sestrin induction (FOXO3): 0
E = Potential FOXO3 Activation (FOXO3; summary score): 0
L = H2O2-resistance in worms (C. elegans): 0
N = H2O2-resistance in woms (C. elegans): 0
D = Triple resistant [3]: 0
S = Sum of Negative scores [3]: 0
C = H2O2- & Cd-resistant [3]: 1
H2O2-resistant (WI-38 cells [4]; [22]): YES
No H2O2 stress treatment, at 10 uM (fold change) (WI-38 cells [4]; WI-38 cells): 0.94 fold change
Assay 1: H2O2-resistant (WI-38 cells [4]): YES
H2O2-resistant (WI-38 cells [4]; [23]): YES
EC50 (WI-38 cells [4]; [24]): 6.2 µM
EC50 (WI-38 cells [4]; [25]): 2.65 µM

Nc1ccccc1S(=O)(=O)Nc1cccc2cccnc12 [Gr-3C]
Assay 7: H2O2-resistant, at 10 uM, validated by propidium iodide (PI) cell-death imaging (WI-38 cells [1]; 10 uM): YES
cytotoxicity at 10 µM (WI-38 cells [1]; [5]): 5.13%
cytotoxicity at 10 µM (WI-38 cells [1]; [6]): 3.1%
fold induction at 10 µM [2, 7]: 6.59
fold induction at 10 µM [2, 8]: 1.69
Assay 6: H2O2-resistant, at 10 uM, human dermal fibroblast (HDF) primary cells [2]: YES
E = Potential FOXO3 Activation (FOXO3; 2-point score): 0
fold induction at 10 µM (FOXO3; [10]): 0.79
fold induction at 10 µM (FOXO3; [12]): 0.87
fold induction at 10 µM (FOXO3; [14]): 0.985
fold induction at 10 µM (FOXO3; [15]): 1.16
fold induction at 10 µM (FOXO3; [16]): 1.09
fold induction at 10 µM (FOXO3; [17]): 0.87
fold induction at 10 µM (FOXO3; [19]): 0.868
fold induction at 10 µM (FOXO3; [20]): 1.2
fold induction at 10 µM (FOXO3; [21]): 1.03
K = Sestrin induction (FOXO3): 0
E = Potential FOXO3 Activation (FOXO3; summary score): 0
L = H2O2-resistance in worms (C. elegans): 0
N = H2O2-resistance in woms (C. elegans): 0
D = Triple resistant [3]: 0
S = Sum of Negative scores [3]: 2
C = H2O2- & Cd-resistant [3]: 0
H2O2-resistant (WI-38 cells [4]; [22]): YES
No H2O2 stress treatment, at 10 uM (fold change) (WI-38 cells [4]; WI-38 cells): 0.95 fold change
H2O2-resistant (WI-38 cells [4]; [23]): YES
EC50 (WI-38 cells [4]; [24]): 6.5 µM
EC50 (WI-38 cells [4]; [25]): 4.6 µM
